Results published in patent publication US11000033B2, “Ketone or oxime compound, and herbicide” (NISSAN CHEMICAL CORPORATION, priority 2014, dated 2021).

Assays:
Type in all cases: in vivo
Lolium multiflorum Lam. = assay: Test Example 4: herbicidal effect by soil treatment (symbol K); conditions: application herbicide amount 320 g/ha
Source text: (§1) Herbicidal Effect Test by Soil Treatment
(§2) Sterilized diluvial soil was placed in a plastic box having a length of 21 cm, a width of 13 cm, and a depth of 7 cm. Each of the seeds of Digitaria ciliaris, Setaria viridis, Echinochloa crus-galli var. crus-galli, Avena fatua, Alopecurus myosuroides, Lolium multiflorum Lam., Apera spica-venti, Abutilon theophrasti, Amaranthus retroflexus, Chenopodium album, Stellaria media, Galium spurium, Veronica persica, corn, soybean, rice, wheat, beet, and rapeseed was sowed in a spot-like manner and was covered with the soil of a thickness of about 1.5 cm. Subsequently, the emulsion agent of the compound present invention prepared in accordance with Formulation Example 2 was diluted with water so as to be a predetermined herbicide amount and the diluted emulsion agent was uniformly applied to the surface of the soil with a small-size spray. The plastic box was placed in a greenhouse of 25° C. to 30° C. to grow plant. 3 weeks later from the herbicide application, the effect to each plant was investigated in accordance with the criteria of Test Example 1.

Stellaria media [1] = assay: Test Example 4: herbicidal effect by soil treatment (symbol P); conditions: application herbicide amount 320 g/ha
Source text: as §1, §2

Leptochloa chinensis = assay: Test Example 3: herbicidal effect by foliage application, Wagner pot (symbol D); conditions: application herbicide amount 320 g/ha
Summary of the method: (§3)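 Weeds and rice were sown in alluvial soil under 0.1–0.5 cm of standing water and grown for 14 days in a 25–30 °C greenhouse. An emulsion of the compound, diluted in water to a set dose, was sprayed evenly onto the foliage. Effect was scored against fixed criteria 3 weeks after treatment.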

Alopecurus myosuroides [2] = assay: Test Example 4: herbicidal effect by soil treatment (symbol J); conditions: application herbicide amount 320 g/ha
Source text: as §1, §2

Digitaria ciliaris = assay: Test Example 4: herbicidal effect by soil treatment (symbol F); conditions: application herbicide amount 320 g/ha
Source text: as §1, §2

Scirpus juncoides = assay: Test Example 2: herbicidal activity, application during weed generation in submerged conditions (symbol B); conditions: Table 23; application herbicide amount 320 g/ha; grade 0-5 by criteria of Test Example 1
Summary of the method: (§4)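 Alluvial soil in pots was flooded to a 4 cm water depth and sown with a mix of the three weed species, then grown in a greenhouse at 25° C. to 30° C. At the one- to two-leaf stage, an emulsifiable formulation diluted in water to a set dose was applied to the water surface. Effects were scored visually 3 weeks later.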

[3] = tested on: Echinochloa oryzacola Vasing.; assay: Test Example 2: herbicidal activity, application during weed generation in submerged conditions (symbol A); conditions: Table 23; application herbicide amount 320 g/ha; grade 0-5 by criteria of Test Example 1
Summary of the method: as §4

[4] = tested on: Echinochloa crus-galli var. crus-galli; assay: Test Example 5: herbicidal effect by foliage application, plastic box (symbol H); conditions: 320 g/ha, 3 weeks after application
Summary of the method: (§5)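 Post-emergence spray; diluvial soil (sterilized), ~1.5 cm seed cover; greenhouse 25–30° C; 14-day-old plants; water-diluted emulsion at predetermined dose; visual score at 3 wk post-treatment.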

Amaranthus retroflexus = assay: Test Example 5: herbicidal effect by foliage application, plastic box (symbol N); conditions: 320 g/ha, 3 weeks after application
Summary of the method: as §5

wheat = assay: Test Example 4: effect on crop by soil treatment (symbol e); conditions: application herbicide amount 320 g/ha
Source text: as §1
(§6) Sterilized diluvial soil was placed in a plastic box having a length of 21 cm, a width of 13 cm, and a depth of 7 cm. Each of the seeds of Digitaria ciliaris, Setaria viridis, Echinochloa crus-galli var. crus-galli, Avena fatua, Alopecurus myosuroides, Lolium multiflorum Lam., Apera spica-venti, Abutilon theophrasti, Amaranthus retroflexus, Chenopodium album, Stellaria media, Galium spurium, Veronica persica, corn, soybean, rice, wheat, beet, and rapeseed was sowed in a spot-like manner and was covered with the soil of a thickness of about 1.5 cm. […] The plastic box was placed in a greenhouse of 25° C. to 30° C. to grow plant.

Chenopodium album = assay: Test Example 5: herbicidal effect by foliage application, plastic box (symbol O); conditions: 320 g/ha, 3 weeks after application
Summary of the method: as §5

Avena fatua = assay: Test Example 4: herbicidal effect by soil treatment (symbol I); conditions: application herbicide amount 320 g/ha
Source text: as §1, §2

rice plant = assay: Test Example 5: effect on crop by foliage application, plastic box (symbol b); conditions: 320 g/ha, 3 weeks after application
Summary of the method: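 Seeds were sown in spots in sterilized diluvial soil held in a plastic box 21 cm × 13 cm × 7 cm deep, covered with about 1.5 cm of soil, and grown in a greenhouse at 25° C. to 30° C.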

Alopecurus myosuroides [5] = assay: Test Example 5: herbicidal effect by foliage application, plastic box (symbol J); conditions: 320 g/ha, 3 weeks after application
Summary of the method: as §5

Setaria viridis = assay: Test Example 4: herbicidal effect by soil treatment (symbol G); conditions: application herbicide amount 320 g/ha
Source text: as §1, §2

Monochoria vaginalis = assay: Test Example 2: herbicidal activity, application during weed generation in submerged conditions (symbol C); conditions: Table 23; application herbicide amount 320 g/ha; grade 0-5 by criteria of Test Example 1
Summary of the method: as §4

[6] = tested on: Echinochloa crus-galli var. crus-galli; assay: Test Example 3: herbicidal effect by foliage application, Wagner pot (symbol H); conditions: application herbicide amount 320 g/ha
Summary of the method: as §3

rice = assay: Test Example 4: effect on crop by soil treatment (symbol b); conditions: application herbicide amount 320 g/ha
Source text: as §1, §6

Stellaria media [7] = assay: Test Example 5: herbicidal effect by foliage application, plastic box (symbol P); conditions: 320 g/ha, 3 weeks after application
Summary of the method: as §5

Structure (SMILES)	K (Lolium multiflorum Lam.) herbicidal effect grade (Lolium multiflorum Lam.)	P (Stellaria media) herbicidal effect grade (Stellaria media [1])	herbicidal effect on D (Leptochloa chinensis), grade 0-5 (Leptochloa chinensis)	J (Alopecurus myosuroides) herbicidal effect grade (Alopecurus myosuroides [2])	F (Digitaria ciliaris) herbicidal effect grade (Digitaria ciliaris)	Herbicidal effect grade, B: Scirpus juncoides (Scirpus juncoides)	Herbicidal effect grade, A: Echinochloa oryzacola Vasing. [3]	H: Echinochloa crus-galli var. crus-galli, herbicidal effect grade [4]	N: Amaranthus retroflexus, herbicidal effect grade (Amaranthus retroflexus)	e (wheat) effect on crop grade (wheat)	O: Chenopodium album, herbicidal effect grade (Chenopodium album)	I (Avena fatua) herbicidal effect grade (Avena fatua)	b: directly sowed rice plant, effect on crop grade (rice plant)	J: Alopecurus myosuroides, herbicidal effect grade (Alopecurus myosuroides [5])	G (Setaria viridis) herbicidal effect grade (Setaria viridis)	Herbicidal effect grade, C: Monochoria vaginalis (Monochoria vaginalis)	herbicidal effect on H (Echinochloa crus-galli var. crus-galli), grade 0-5 [6]	b (directly sowed rice plant) effect on crop grade (rice)	P: Stellaria media, herbicidal effect grade (Stellaria media [7])
CON=C(C)CC1CC(OC(=O)C(C)(C)C)=C(c2c(C)cc(C)cc2C)C1=O (stereo not shown) [1-004, 2-mesityl-4-{2-(methoxyimino)propyl}-3-oxocyclopent-1-en-1-yl pivalate]	5 (Herbicidal ratio of 90% or more (almost completely withered))	0 (Herbicidal ratio of 5% or lower (almost no effect))	5 (Herbicidal ratio of 90% or more (almost completely withered))	5 (Herbicidal ratio of 90% or more (almost completely withered))	5 (Herbicidal ratio of 90% or more (almost completely withered))	4 (Herbicidal ratio of 70% or higher and lower than 90%)	5 (Herbicidal ratio of 90% or more (almost completely withered))	5 (Herbicidal ratio of 90% or more (almost completely withered))	4 (Herbicidal ratio of 70% or higher and lower than 90%)	3 (Herbicidal ratio of 40% or higher and lower than 70%)	3 (Herbicidal ratio of 40% or higher and lower than 70%)	5 (Herbicidal ratio of 90% or more (almost completely withered))	5 (Herbicidal ratio of 90% or more (almost completely withered))	5 (Herbicidal ratio of 90% or more (almost completely withered))	5 (Herbicidal ratio of 90% or more (almost completely withered))	4 (Herbicidal ratio of 70% or higher and lower than 90%)	5 (Herbicidal ratio of 90% or more (almost completely withered))	5 (Herbicidal ratio of 90% or more (almost completely withered))	
CON=C(C)CC1CC(OC(C)=O)=C(c2c(C)cc(C)cc2C)C1=O (stereo not shown) [1-005]	5 (Herbicidal ratio of 90% or more (almost completely withered))	0 (Herbicidal ratio of 5% or lower (almost no effect))	5 (Herbicidal ratio of 90% or more (almost completely withered))	5 (Herbicidal ratio of 90% or more (almost completely withered))	5 (Herbicidal ratio of 90% or more (almost completely withered))	4 (Herbicidal ratio of 70% or higher and lower than 90%)	5 (Herbicidal ratio of 90% or more (almost completely withered))	5 (Herbicidal ratio of 90% or more (almost completely withered))	4 (Herbicidal ratio of 70% or higher and lower than 90%)	4 (Herbicidal ratio of 70% or higher and lower than 90%)	3 (Herbicidal ratio of 40% or higher and lower than 70%)	5 (Herbicidal ratio of 90% or more (almost completely withered))	5 (Herbicidal ratio of 90% or more (almost completely withered))	5 (Herbicidal ratio of 90% or more (almost completely withered))	3 (Herbicidal ratio of 40% or higher and lower than 70%)	4 (Herbicidal ratio of 70% or higher and lower than 90%)	5 (Herbicidal ratio of 90% or more (almost completely withered))	5 (Herbicidal ratio of 90% or more (almost completely withered))	4 (Herbicidal ratio of 70% or higher and lower than 90%)
C=CCOC1=C(c2c(C)cc(C)cc2C)C(=O)C(CC(C)=NOC)C1 (stereo not shown) [1-007]	2 (Herbicidal ratio of 20% or higher and lower than 40%)		5 (Herbicidal ratio of 90% or more (almost completely withered))	0 (Herbicidal ratio of 5% or lower (almost no effect))	0 (Herbicidal ratio of 5% or lower (almost no effect))	0 (Herbicidal ratio of 5% or lower (almost no effect))	0 (Herbicidal ratio of 5% or lower (almost no effect))	0 (Herbicidal ratio of 5% or lower (almost no effect))	0 (Herbicidal ratio of 5% or lower (almost no effect))	0 (Herbicidal ratio of 5% or lower (almost no effect))	0 (Herbicidal ratio of 5% or lower (almost no effect))	0 (Herbicidal ratio of 5% or lower (almost no effect))	0 (Herbicidal ratio of 5% or lower (almost no effect))	3 (Herbicidal ratio of 40% or higher and lower than 70%)	0 (Herbicidal ratio of 5% or lower (almost no effect))	0 (Herbicidal ratio of 5% or lower (almost no effect))	0 (Herbicidal ratio of 5% or lower (almost no effect))	0 (Herbicidal ratio of 5% or lower (almost no effect))	0 (Herbicidal ratio of 5% or lower (almost no effect))
